Laboratory results taken from ChEMBL document CHEMBL4673380, “Novel Pyrimidinones as SHP2 Antagonists for Treating Cancer” (ACS Med Chem Lett, 2021).

Target: T1, Tyrosine-protein phosphatase non-receptor type 11 (Homo sapiens, UniProt Q06124)
T1 sequence (Q06124 whole entry): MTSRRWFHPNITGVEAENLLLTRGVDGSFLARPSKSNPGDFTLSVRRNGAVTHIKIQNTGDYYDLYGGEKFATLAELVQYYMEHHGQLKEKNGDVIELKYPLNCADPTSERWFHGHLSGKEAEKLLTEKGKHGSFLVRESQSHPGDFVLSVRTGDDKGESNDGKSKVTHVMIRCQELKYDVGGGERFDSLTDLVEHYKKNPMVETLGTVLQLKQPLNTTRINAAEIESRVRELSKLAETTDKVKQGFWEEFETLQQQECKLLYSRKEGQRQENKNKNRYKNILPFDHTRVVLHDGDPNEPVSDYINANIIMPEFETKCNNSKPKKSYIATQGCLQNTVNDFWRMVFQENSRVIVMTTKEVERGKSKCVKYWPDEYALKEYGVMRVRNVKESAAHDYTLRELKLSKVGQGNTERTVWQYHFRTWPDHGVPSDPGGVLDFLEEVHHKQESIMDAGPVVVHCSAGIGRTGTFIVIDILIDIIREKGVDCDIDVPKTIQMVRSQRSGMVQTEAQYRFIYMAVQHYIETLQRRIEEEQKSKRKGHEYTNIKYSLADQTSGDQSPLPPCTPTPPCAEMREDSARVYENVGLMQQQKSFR
Assay: Antagonist activity at recombinant human N-terminal His6-tagged full length SHP2 expressed in Escherichia coli using DiFMUP as substrate measured after 60 mins in presence of IRS1-2pY peptide by fluorescence assay

Compound | IC50
Cc1c(N2CCC3(CC2)Cc2ncccc2[C@@H]3N)nc(C)n(-c2cccc(Cl)c2Cl)c1=O | 1 nM

Target: T1, Tyrosine-protein phosphatase non-receptor type 11
Assay: Antagonist activity at SHP2 in human KYSE520 cells assessed as inhibition of ERK1/2 phosphorylation incubated for 2 hrs
Assay type: cell-based

Compound | IC50
Cc1nc(N2CCC3(CC2)Cc2ccccc2[C@H]3N)cc(=O)n1-c1cccc(Cl)c1Cl | 5 nM
Cc1c(N2CCC3(CC2)Cc2ccccc2[C@H]3N)nc(C)n(-c2cccc(Cl)c2Cl)c1=O | 2 nM
Cc1c(F)ccc(-n2c(C)nc(N3CCC4(CC3)Cc3ccccc3[C@H]4N)c(C)c2=O)c1Cl | 7 nM
Cc1c(N2CCC3(CC2)Oc2ccccc2[C@H]3N)nc(C)n(-c2cccc(Cl)c2Cl)c1=O | 6.6 nM
Cc1c(N2CCC3(CC2)Cc2ncccc2[C@@H]3N)nc(C)n(-c2cccc(Cl)c2Cl)c1=O | 5 nM
Cc1c(N2CCC3(CC2)Cc2ccccc2[C@H]3N)nc(C)n(-c2ccc(F)c(Cl)c2Cl)c1=O | 4 nM
